From patent US10398144B2, “N-,C-disubstituted azoles and compositions and methods for controlling nematode pests” (Monsanto Technology LLC, priority 2013, dated 2019)
Marks after values point to notes of the source that are not given here.

Columns and labels:
[1] = test system: Meloidogyne incognita nematodes; assay: Miniaturized greenhouse nematicidal efficacy assay (cucumber root gall rating); conditions: average of triplicate gall ratings
Procedure: A miniaturized greenhouse assay was conducted to study the effects of several N-,C-disubstituted azole analogs on Meloidogyne incognita nematodes.
Cucumber seeds were sprouted for 3 days in moist paper towels. Acceptable sprouts were 3 to 4 cm long, with several lateral roots just emerging.
Each test solution was evaluated in triplicate. Dry sand (10 mL) was added to each vial. Seedlings were planted by tilting the vial and laying the seedling in the correct orientation so that the cotyledons were just above the sand, and then tilting back to cover the radicles with sand.
A sample of the test solution (3.3 mL) was then added to each vial, and the vials were placed in racks under fluorescent light banks. The vials were inoculated two days after planting by adding 500 vermiform M. incognita eggs to each vial in deionized or spring water (50 μL). The vials were then kept under the fluorescent lamps at ambient room temperature and watered as needed with deionized water (1 mL), usually twice during duration of test.
Harvest of the cucumber plants was performed 10 to 12 days after inoculation by washing sand off the roots. A root gall rating was assigned using the following Gall rating scale (Gall: % root mass galled): 0=0-5%; 1=6-20%; 2=21-50%; and 3=51-100%.

[2] = 1 ppm, cucumber seedlings in sand, 500 M. incognita eggs, harvest 10 to 12 days after inoculation, scale 0=0-5%, 1=6-20%, 2=21-50%, 3=51-100% root mass galled
[3] = 8 ppm, cucumber seedlings in sand, 500 M. incognita eggs, harvest 10 to 12 days after inoculation, scale 0=0-5%, 1=6-20%, 2=21-50%, 3=51-100% root mass galled
[4] = 40 ppm, cucumber seedlings in sand, 500 M. incognita eggs, harvest 10 to 12 days after inoculation, scale 0=0-5%, 1=6-20%, 2=21-50%, 3=51-100% root mass galled

melting point [°C] | Compound | 40/8/1 ppm gall ratings [1, 2] | 40/8/1 ppm gall ratings [1, 3] | 40/8/1 ppm gall ratings [1, 4] | 40/8/1 ppm gall ratings ([1]; comparative compositions at 1 ppm, letters a-d mark separate tests, scale 0-3)
118 to 120 | c1ccc(-n2cc(-c3ccco3)nn2)cc1 [Formula Ia-i, 4-(furan-2-yl)-1-phenyl-1H-1,2,3-triazole] | – | – | – | –
78 | c1ccc(-n2ncc(-c3cccs3)n2)cc1 [Formula Id-i, 2-phenyl-4-(thiophen-2-yl)-2H-1,2,3-triazole] | – | – | – | –
– | Fc1ccc(-c2cn(-c3cccs3)nn2)c(F)c1 [IIa-i, 4-(2,4-difluorophenyl)-1-(thiophen-2-yl)-1H-1,2,3-triazole] | 1.67 | 0.00 | 0.00 | –
– | c1ccc(-c2cn(-c3cccs3)nn2)cc1 [IIa-ii, 4-phenyl-1-(thiophen-2-yl)-1H-1,2,3-triazole] | 1.67 | 0.00 | 0.00 | –
– | c1ccc(-c2cn(-c3ccco3)nn2)cc1 [IIa-iii, 1-(furan-2-yl)-4-phenyl-1H-1,2,3-triazole] | 2.00 | 1.33 | 0.00 | –
– | Fc1ccc(-c2cn(-c3cccs3)nn2)cc1 [IIa-iv, 4-(4-fluorophenyl)-1-(thiophen-2-yl)-1H-1,2,3-triazole] | 2.67 | 1.33 | 0.33 | –
– | Clc1ccc(-c2cn(-c3ccco3)nn2)cc1 [IIa-v, 4-(4-chlorophenyl)-1-(furan-2-yl)-1H-1,2,3-triazole] | 2.33 | 0.67 | 0.00 | –
– | Clc1ccc(-c2cn(-c3cccs3)cn2)cc1 [IIc-i, 4-(4-chlorophenyl)-1-(thiophen-2-yl)-1H-imidazole] | 1.67 | 1.33 | 0.00 | –
– | c1ccc(-c2cn(-c3cccs3)cn2)cc1 [IIc-iii, 4-phenyl-1-(thiophen-2-yl)-1H-imidazole] | 2.33 | 1.33 | 0.00 | –
– | Clc1ccc(-c2cn(-c3ccco3)cn2)cc1 [IIc-iv, 4-(4-chlorophenyl)-1-(furan-2-yl)-1H-imidazole] | 2.33 | 2.00 | 0.33 | –
– | c1ccc(-n2cc(-c3ccco3)nn2)cc1 [Ia-i, 4-(furan-2-yl)-1-phenyl-1H-1,2,3-triazole] | 2.67 | 1.33 | 0.00 | –
– | Fc1ccc(-n2cc(-c3cccs3)nn2)c(F)c1 [Ia-ii, 1-(2,4-difluorophenyl)-4-(thiophen-2-yl)-1H-1,2,3-triazole] | 3.00 | 2.33 | 0.00 | –
– | Clc1ccc(-n2cc(-c3ccco3)nn2)cc1 [Ia-iiii, 1-(4-chlorophenyl)-4-(furan-2-yl)-1H-1,2,3-triazole] | 2.67 | 1.00 | 0.00 | –
– | Fc1ccc(-n2cc(-c3ccco3)nn2)cc1 [Ia-iv, 1-(4-fluorophenyl)-4-(furan-2-yl)-1H-1,2,3-triazole] | 2.33 | 1.67 | 0.33 | –
– | Fc1ccc(-n2cc(-c3ccco3)nn2)c(F)c1 [Ia-v, 1-(2,4-difluorophenyl)-4-(furan-2-yl)-1H-1,2,3-triazole] | 2.33 | 0.67 | 0.00 | –
– | c1ccc(-n2cc(-c3cccs3)cn2)cc1 [Ib-i, 1-phenyl-4-(thiophen-2-yl)-1H-pyrazole] | 3.00 | 0.33 | 0.00 | –
– | Clc1ccc(-n2cc(-c3cccs3)cn2)cc1 [Ib-ii, 1-(4-chlorophenyl)-4-(thiophen-2-yl)-1H-pyrazole] | 2.33 | 0.67 | 0.00 | –
– | c1ccc(-n2cc(-c3ccco3)cn2)cc1 [Ib-iii, 4-(furan-2-yl)-1-phenyl-1H-pyrazole] | 2.67 | 1.67 | 0.00 | –
– | Clc1ccc(-n2cnc(-c3ccco3)c2)cc1 [Ic-i, 1-(4-chlorophenyl)-4-(furan-2-yl)-1H-imidazole] | 3.00 | 2.00 | 0.33 | –
– | c1ccc(-n2ncc(-c3cccs3)n2)cc1 [Id-i, 2-phenyl-4-(thiophen-2-yl)-2H-1,2,3-triazole] | 1.67 | 0.33 | 0.00 | –
– | c1ccc(-n2ncc(-c3ccco3)n2)cc1 [Id-ii, 4-(furan-2-yl)-2-phenyl-2H-1,2,3-triazole] | 2.33 | 1.00 | 0.00 | –
– | Abamectin [reference compound] | – | – | – | 1.67^d
